Measured values published in patent publication US11744889B2, “Skin microenvironment targeted delivery for promoting immune and other responses” (University of Pittsburgh—Of the Commonwealth System of …, priority 2016, dated 2023).
Entries after “also recorded” stand apart in the source; their conditions may differ.

How the values were obtained:
epidermal cells = conditions: 5 mg/g of CMC, about 140 μg per array; 72 hours of exposure
Method: Cytoxan® was integrated at a concentration of 5 mg/g of CMC, enabling delivery of approximately about 140 μg per array. […] Living human skin organ cultures were used to assess the cytotoxicity of Cytoxan®. Cytoxan® was delivered by application of arrays to skin explants as we previously described. Arrays and residual material were removed 5 minutes after application, and after 72 hours of exposure, culture living skin explants were cryo-sectioned and fixed.

[1] = MNA DNBS dose response, ear thickness increase and histology; type: in vivo, mouse; conditions: MNAs with 25 ng, 50 ng and 100 ng tested; ear thickness increase
Method: These figures illustrate an exemplary MNA DNBS dose response, by indicating an optimal lowest dose of hapten contained in MNAs capable of inducing effective skin acute and chronic inflammation. In particular, FIG. 51A charts MNA DNBS doses as a percentage of ear thickness increase. FIG. 51B provides histological detail of treated ear skin following the application of MNAs with the three different doses of DNBS (25 ng, 50 ng, and 100 ng).

[2] = Dye release from MNAs inserted into 4% agar test-gels; type: physicochemical; conditions: dually loaded MNA
Source text: To illustrate the delivery of multiple drugs with distinct release kinetics, MNAs were fabricated to delivery two distinct cargos by distinct release kinetics. Specifically, MNAs were fabricated to release the marker Toluidine Blue in an initial burst, followed by a sustained release of the marker FD&C Red40. Dyes were directly loaded in the MNA scaffold matrix (in this case CMC) of the needle tips and in some cases a second dye, encapsulated in a sustained release polymer was layer directly below. MNAs were inserted into 4% agar test-gels and removed after 1 min.
Images of dye diffusion were collected at the indicated time points (FIG. 39A). As shown in FIGS. 39A-C, FD&C Red40 (FIG. 39A) and toluidine blue (FIG. 39B), tracer dyes were tip-loaded in MNAs for immediate release. Alternatively, MNAs were fabricated with toluidine blue tip-loaded and FD&C Red40 encapsulated in a sustained release polymer (FIG. 39C). MNAs were inserted into 4% agar test-gel and removed after 1 min. Images were collected at the indicated time-points. Tip-loaded cargos were rapidly released from the MNAs and dispersed progressively in the gel (FIG. 39A and B). […] Upper panels depict images of microneedles from MNAs before application. The middle images are the imprints of the arrays 1 minute after application and MNA removal. Lower panels depicted the indicated representative magnified images at the indicated time points.

B16 melanoma = experiment: Treatment of established B16 skin tumors with MNAs; conditions: MNA once weekly for three weeks; for survival: untreated 100% mortality
Method: B16 skin tumors were established in normal mice by injection. Visible established cutaneous tumors were treated once weekly for three weeks with MNAs containing either doxorubicin alone, Poly(I:C) alone, or doxorubicin and Poly(I:C) incorporated into the same MNA. The doxorubicin dose chosen corresponds to an MNA dose that induces apoptosis in human skin without causing necrosis. Tumor growth and survival were measured regularly for the duration of the study.

NK1R [3] = target: T1, NK1R (Mus musculus, UniProt P30548); experiment: Histology of skin and skin draining lymph nodes of B6-WT mice sensitized with DNCB with or without SarSP; type: in vivo
T1 construct: from tissue
Source text: (A & C: H and E, 200×; Insets, 1,000×; B & D: TB, 200×; Insets 1,000×; NT refers to non-treated mice.)
The effect of different treatments in B6-WT mice was compared with n=6/experimental group.

NK1R [4] = target: T2, NK1R (Homo sapiens, UniProt P25103); experiment: Human mixed leukocyte cultures (MLC), skin DC as stimulators of allogeneic naive CD4 T cells, with SarSP; type: cell-based; conditions: SarSP added to MLC
T2 construct: adding SarSP to human mixed leukocyte cultures (MLC) using skin DC as stimulators of allogeneic naïve CD4 T cells; endogenous in cells; host or cells: human skin dendritic cells from skin explants, co-cultured with allogeneic T cells (MLC)
Source text: FIGS. 42A and 42B show human skin DCs express functional NK1R. […] Conventional rigid MNA with pyramid geometry can suffer from limited skin penetration, and poor and unreliable cargo delivery capacity compared to the novel microneedle structures disclosed herein. For example, in some embodiments, the delivery systems disclosed herein integrate biologics into dissolvable carboxymethyl-cellulose (CMC) microneedles with obelisk geometries.

NK1R [5] = target: T1, NK1R; experiment: DTH reaction in mice sensitized with DNCB with NK1R agonist SarSP; type: in vivo; conditions: C57BL/6 (B6) mice sensitized with DNCB in the presence of SarSP (10^−9 M)
Source text: The effect of different treatments in B6-WT mice was compared with n=6/experimental group. […] The inflammatory infiltrate was composed of leukocytes including polimorphonuclear neutrophils (PMN) and eosinophils as shown in the inset of FIG. 45A.
Means±1SD of 6 mice/experimental group are illustrated, with three independent experiments performed.

[6] = system: OVA-specific CTL activity; experiment: OVA-specific CTL activity in vivo after CMC-microneedle array immunization; conditions: mice immunized on ears with pyramidal arrays, boosted one week later

T1 sequence (P30548 whole entry): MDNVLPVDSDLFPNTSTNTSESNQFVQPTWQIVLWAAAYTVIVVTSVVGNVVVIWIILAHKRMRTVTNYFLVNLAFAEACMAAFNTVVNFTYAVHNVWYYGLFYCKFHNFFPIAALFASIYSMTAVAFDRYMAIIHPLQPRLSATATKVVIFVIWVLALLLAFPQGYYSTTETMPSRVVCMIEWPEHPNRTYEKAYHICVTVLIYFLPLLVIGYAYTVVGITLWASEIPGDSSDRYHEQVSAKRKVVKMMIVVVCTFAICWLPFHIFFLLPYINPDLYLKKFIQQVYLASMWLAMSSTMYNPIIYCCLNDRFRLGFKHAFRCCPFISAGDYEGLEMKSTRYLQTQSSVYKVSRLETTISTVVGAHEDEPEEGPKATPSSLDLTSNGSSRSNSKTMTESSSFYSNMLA
T2 sequence (P25103 whole entry): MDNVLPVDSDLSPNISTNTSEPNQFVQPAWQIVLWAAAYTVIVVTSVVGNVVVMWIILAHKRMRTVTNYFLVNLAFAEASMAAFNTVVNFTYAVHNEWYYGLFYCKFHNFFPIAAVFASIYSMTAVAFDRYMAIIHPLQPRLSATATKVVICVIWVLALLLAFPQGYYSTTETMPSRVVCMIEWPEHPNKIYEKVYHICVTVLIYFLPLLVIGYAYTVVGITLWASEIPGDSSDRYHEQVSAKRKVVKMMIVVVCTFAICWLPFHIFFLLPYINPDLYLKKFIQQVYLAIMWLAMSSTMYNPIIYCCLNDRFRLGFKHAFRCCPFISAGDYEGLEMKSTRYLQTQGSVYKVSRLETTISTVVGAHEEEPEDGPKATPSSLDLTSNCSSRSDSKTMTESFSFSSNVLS

Compound: O=P1(N(CCCl)CCCl)NCCCO1 (stereo not shown) [Cytoxan®, cyclophosphamide]
- apoptosis of epidermal cells (TUNEL) (epidermal cells): extensive apoptosis of epidermal cells

Compound: O=[N+]([O-])c1ccc(S(=O)(=O)O)c([N+](=O)[O-])c1 [DNBS, 2,4-Dinitrobenzenesulfonic acid]
- optimal, lowest dose inducing skin acute and chronic inflammation [1]: 50 ng

Compound: COc1cc(S(=O)(=O)[O-])c(C)cc1N=Nc1c(O)ccc2cc(S(=O)(=O)[O-])ccc12.[Na+].[Na+] [FD&C Red40]
- release of encapsulated dye ([2]; dye encapsulated in sustained release polymer): released slowly over an extended time period
- period of release from depot ([2]; dye in underlying layer of sustained release polymer): 10 days

Compound: Cc1cc2nc3ccc(N(C)C)cc3[s+]c2cc1N.[Cl-] [Toluidine Blue]
- release of tip-loaded dye ([2]; dye in CMC in the needle tip): released in an initial burst

Compound: COc1cccc2c1C(=O)c1c(O)c3c(c(O)c1C2=O)C[C@@](O)(C(=O)CO)C[C@@H]3O[C@H]1C[C@H](N)[C@H](O)[C@H](C)O1 [doxorubicin]
- tumor growth (B16 melanoma): slowed tumor growth
- survival (B16 melanoma): 30%

Compound: Poly(I:C)
- tumor growth (B16 melanoma): slowed tumor growth
- survival (B16 melanoma): 50%

Compound: Sar^9 Met(O2)^11—SP [SarSP]
- MC activation and degranulation in skin (NK1R [3]; B6-WT mice): triggered MC activation and degranulation
- inflammatory response in skin (NK1R [3]; agent administered alone, B6-WT mice): did not induce inflammatory response
- inflammatory infiltrate in skin draining lymph node (NK1R [3]; co-administration with DNCB): significantly increases the inflammatory infiltrate
- inflammatory response in skin (NK1R [3]; co-administration with DNCB, B6-WT mice): significantly increased the number of inflammatory cells; also recorded: dramatically increased the magnitude of the inflammatory response and tissue damage
- number of MC in draining lymph nodes (NK1R [3]; mouse, in vivo): induced an increased number of MC
- IFN-γ secretion (NK1R [4]): significantly augmented
- Tcell proliferation (NK1R [4]): significantly augmented
- DTH reactions (NK1R [5]): significantly increased DTH reactions

Compound: particulate OVA: particulate ovalbumin, model antigen, in CMC microneedle arrays
- OVA-specific CTL activity in vivo [6]: Significant OVA-specific CTL activity

Compound: soluble OVA: soluble ovalbumin, model antigen, in CMC microneedle arrays
- OVA-specific CTL activity in vivo [6]: Significant OVA-specific CTL activity
